In paper PMC4818591 (ChemMedChem, 2015):

Columns and labels:
HDAC2 = HDAC2 (Homo sapiens, UniProt Q92769); experiment: HDAC2 isozyme inhibition; type: biochemical; conditions: for SI HDAC2/6: selectivity index
HDAC3 = HDAC3 (Homo sapiens, UniProt O15379); experiment: HDAC3 isozyme inhibition; type: biochemical; conditions: for SI HDAC3/6: selectivity index
[1] = tested on: BxPC3 pancreatic cancer cells; experiment: Apoptosis induction, BxPC3; type: cell-based; conditions: BxPC3, data not shown
[2] = tested on: L3.6pl pancreatic cancer cells; experiment: Apoptosis by Hoechst staining and PARP cleavage, L3.6pl; type: cell-based; conditions: 10 μM, 24 h
HDAC1 = HDAC1 (Homo sapiens, UniProt Q13547); experiment: HDAC1 isozyme inhibition; type: biochemical; conditions: for SI HDAC1/6: selectivity index
HDAC1, sequence (Q13547 whole entry): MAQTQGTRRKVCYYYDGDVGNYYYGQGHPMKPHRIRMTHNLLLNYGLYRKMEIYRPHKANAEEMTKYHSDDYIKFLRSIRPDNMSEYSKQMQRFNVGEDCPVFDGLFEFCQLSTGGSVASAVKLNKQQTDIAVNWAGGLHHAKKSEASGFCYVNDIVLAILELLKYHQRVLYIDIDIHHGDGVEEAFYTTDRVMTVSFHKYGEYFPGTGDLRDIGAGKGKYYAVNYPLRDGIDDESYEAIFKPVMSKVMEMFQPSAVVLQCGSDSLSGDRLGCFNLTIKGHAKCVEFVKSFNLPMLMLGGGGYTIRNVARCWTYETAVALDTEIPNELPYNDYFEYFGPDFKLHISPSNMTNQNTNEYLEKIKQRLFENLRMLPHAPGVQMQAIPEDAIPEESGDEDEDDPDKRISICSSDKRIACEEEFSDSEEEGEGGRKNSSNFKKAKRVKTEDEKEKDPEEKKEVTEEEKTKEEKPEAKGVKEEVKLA

HDAC10 = molecular target: T1, HDAC10 (Homo sapiens, UniProt Q969S8); experiment: HDAC10 isozyme inhibition; type: biochemical; conditions: for SI HDAC10/6: selectivity index
T1 sequence (Q969S8 1-669): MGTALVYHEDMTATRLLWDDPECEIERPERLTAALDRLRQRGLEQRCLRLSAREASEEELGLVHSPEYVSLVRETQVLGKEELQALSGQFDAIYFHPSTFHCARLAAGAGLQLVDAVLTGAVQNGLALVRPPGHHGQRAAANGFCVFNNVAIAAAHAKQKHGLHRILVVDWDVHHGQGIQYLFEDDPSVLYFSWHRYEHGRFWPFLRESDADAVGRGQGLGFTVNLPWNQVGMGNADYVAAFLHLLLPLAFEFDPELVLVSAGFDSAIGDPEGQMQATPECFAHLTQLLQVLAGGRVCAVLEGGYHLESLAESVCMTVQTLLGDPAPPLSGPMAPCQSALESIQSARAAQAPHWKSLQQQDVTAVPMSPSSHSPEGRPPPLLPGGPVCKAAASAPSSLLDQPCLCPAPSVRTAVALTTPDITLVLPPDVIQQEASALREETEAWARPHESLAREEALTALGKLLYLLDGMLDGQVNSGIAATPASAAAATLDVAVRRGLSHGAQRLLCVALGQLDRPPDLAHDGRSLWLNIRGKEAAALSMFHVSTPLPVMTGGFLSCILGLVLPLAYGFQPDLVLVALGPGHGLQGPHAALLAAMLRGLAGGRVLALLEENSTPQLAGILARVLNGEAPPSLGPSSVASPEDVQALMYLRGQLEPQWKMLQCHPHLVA

HDAC6 = molecular target: T2, HDAC6 (Homo sapiens, UniProt Q9UBN7); experiment: HDAC6 isozyme inhibition; type: biochemical; conditions: read-out: HDAC Isoform, IC50, Class II, 6; duplicate, 10-dose IC50 mode, 3-fold serial dilution starting at 30 μM; average ± standard deviation
T2 sequence (Q9UBN7 1-1215): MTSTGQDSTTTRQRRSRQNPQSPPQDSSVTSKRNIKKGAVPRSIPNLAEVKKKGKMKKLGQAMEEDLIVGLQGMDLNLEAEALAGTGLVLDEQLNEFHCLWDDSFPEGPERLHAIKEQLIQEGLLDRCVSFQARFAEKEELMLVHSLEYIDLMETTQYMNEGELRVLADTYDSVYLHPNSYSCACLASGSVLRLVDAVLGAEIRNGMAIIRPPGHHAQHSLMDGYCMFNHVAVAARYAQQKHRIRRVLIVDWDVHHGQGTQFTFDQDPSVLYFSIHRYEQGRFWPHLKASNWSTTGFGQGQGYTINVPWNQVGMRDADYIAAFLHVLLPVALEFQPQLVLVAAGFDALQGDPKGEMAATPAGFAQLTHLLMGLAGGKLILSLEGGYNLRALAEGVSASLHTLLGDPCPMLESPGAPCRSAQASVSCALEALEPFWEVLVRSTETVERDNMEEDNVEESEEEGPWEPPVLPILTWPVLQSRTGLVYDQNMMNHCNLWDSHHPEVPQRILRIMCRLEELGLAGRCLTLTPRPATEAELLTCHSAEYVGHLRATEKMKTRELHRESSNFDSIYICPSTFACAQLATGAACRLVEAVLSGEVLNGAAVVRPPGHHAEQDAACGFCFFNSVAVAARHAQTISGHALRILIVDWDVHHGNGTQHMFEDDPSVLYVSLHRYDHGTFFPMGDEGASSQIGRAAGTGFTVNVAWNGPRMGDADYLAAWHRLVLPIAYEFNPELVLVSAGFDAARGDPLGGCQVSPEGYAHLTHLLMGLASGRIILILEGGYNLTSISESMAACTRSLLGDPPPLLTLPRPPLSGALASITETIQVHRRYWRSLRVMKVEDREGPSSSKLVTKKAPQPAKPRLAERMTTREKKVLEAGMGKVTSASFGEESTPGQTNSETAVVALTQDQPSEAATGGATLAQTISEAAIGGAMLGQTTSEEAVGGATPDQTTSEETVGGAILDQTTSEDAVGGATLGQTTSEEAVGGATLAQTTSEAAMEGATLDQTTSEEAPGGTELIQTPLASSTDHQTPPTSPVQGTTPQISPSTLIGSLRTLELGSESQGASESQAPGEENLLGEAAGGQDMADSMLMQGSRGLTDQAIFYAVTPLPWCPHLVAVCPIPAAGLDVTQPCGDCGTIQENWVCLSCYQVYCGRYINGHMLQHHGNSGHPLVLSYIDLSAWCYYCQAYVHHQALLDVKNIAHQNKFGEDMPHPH

[3] = tested on: BxPC3 subcutaneous xenograft; conditions: BxPC3 subcutaneous xenograft mouse model; cited from earlier work
[4] = tested on: L3.6pl pancreatic cancer cells; experiment: Growth inhibition, MTS cell proliferation assay, L3.6pl; type: cell-based; conditions: Homo sapiens, 72 h, read-out: L3.6pl GI50

HDAC3, sequence (O15379 whole entry): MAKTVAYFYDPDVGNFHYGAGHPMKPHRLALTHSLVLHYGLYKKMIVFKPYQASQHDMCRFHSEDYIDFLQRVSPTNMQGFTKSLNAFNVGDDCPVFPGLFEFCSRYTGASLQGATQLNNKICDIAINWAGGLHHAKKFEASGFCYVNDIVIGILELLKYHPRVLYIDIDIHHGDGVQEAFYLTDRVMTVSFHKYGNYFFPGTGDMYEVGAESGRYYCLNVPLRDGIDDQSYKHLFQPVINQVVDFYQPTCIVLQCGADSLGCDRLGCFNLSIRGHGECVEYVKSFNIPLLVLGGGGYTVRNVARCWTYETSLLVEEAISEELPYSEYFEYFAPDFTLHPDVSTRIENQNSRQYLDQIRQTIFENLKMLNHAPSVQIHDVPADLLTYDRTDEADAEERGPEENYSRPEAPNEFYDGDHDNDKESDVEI
HDAC3, sequence (Q9Y618 395-489 partner limits assumed): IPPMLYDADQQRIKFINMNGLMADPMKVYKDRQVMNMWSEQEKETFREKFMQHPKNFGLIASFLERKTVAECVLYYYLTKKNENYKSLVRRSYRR
HDAC2, sequence (Q92769 whole entry): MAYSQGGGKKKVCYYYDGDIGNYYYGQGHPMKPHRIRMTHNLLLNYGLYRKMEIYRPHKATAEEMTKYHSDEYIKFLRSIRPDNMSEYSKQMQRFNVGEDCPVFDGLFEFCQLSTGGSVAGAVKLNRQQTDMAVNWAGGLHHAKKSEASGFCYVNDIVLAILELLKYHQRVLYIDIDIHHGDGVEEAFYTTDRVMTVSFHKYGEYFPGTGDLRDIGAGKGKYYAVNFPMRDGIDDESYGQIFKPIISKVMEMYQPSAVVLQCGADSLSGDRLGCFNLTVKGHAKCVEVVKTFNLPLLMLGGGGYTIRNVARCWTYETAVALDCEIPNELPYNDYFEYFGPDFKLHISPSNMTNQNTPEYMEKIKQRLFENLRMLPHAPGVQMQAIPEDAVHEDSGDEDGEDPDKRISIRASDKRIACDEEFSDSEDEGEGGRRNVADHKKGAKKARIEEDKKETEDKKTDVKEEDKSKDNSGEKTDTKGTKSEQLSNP

Structure (SMILES)	SI HDAC2/6 (HDAC2)	SI HDAC3/6 (HDAC3)	induction of apoptosis [1]	induction of apoptosis (Hoechst staining, PARP cleavage) [2]	SI HDAC1/6 (HDAC1)	SI HDAC10/6 (HDAC10)	IC50 (HDAC2; read-out: HDAC Isoform, IC50, Class I, 2, singlet, 10-dose IC50 mode, 3-fold serial dilution starting at 30 μM, >50000 = no inhibition at 50 μM) [µM]	IC50 (HDAC3; read-out: HDAC Isoform, IC50, Class I, 3, singlet, 10-dose IC50 mode, 3-fold serial dilution starting at 30 μM, >50000 = no inhibition at 50 μM) [µM]	IC50 (HDAC6) [µM]	IC50 (HDAC1; read-out: HDAC Isoform, IC50, Class I, 1, singlet, 10-dose IC50 mode, 3-fold serial dilution starting at 30 μM, >50000 = no inhibition at 50 μM) [µM]	IC50 (HDAC10; read-out: HDAC Isoform, IC50, Class II, 10, singlet, 10-dose IC50 mode, 3-fold serial dilution starting at 30 μM, >50000 = no inhibition at 50 μM) [µM]	apoptosis and tumor growth [3]	GI50 [4] [µM]
CCOC(=O)Nc1ccc(-c2csc(NC(=O)CCCc3cc(C(=O)NO)no3)n2)cc1 [Compound 4, N-[4-[2-[4-[3-(N-Hydroxycarbamoyl)isoxazol-5-yl]butyrylamino]thiazol-4-yl]phenyl]carbamic Acid Ethyl Ester]	17	7.2	none of compounds 1, 2, or 4 induced apoptosis	effectively induced apoptosis	4.1	6.6							
O=C(CCc1cc(C(=O)NO)no1)Nc1nc(-c2ccccc2)cs1 [Compound 2, 5-[2-[N-(4-Phenylthiazol-2-yl)carbamoyl]ethyl]isoxazole-3-carbohydroxyamic Acid]	37	10	none of compounds 1, 2, or 4 induced apoptosis	effectively induced apoptosis	10	13	1.14	0.32	0.031 ± 0.0034	0.307	0.407		
Cc1[nH]c2ccccc2c1CCNCc1ccc(/C=C/C(=O)NO)cc1 [panobinostat]												promote apoptosis and reduce tumor growth	
O=C(CCCc1cc(C(=O)NO)no1)Nc1nc(-c2ccccc2)cs1 [Compound 1, 5-[3-[N-(4-Phenylthiazol-2-yl)carbamoyl]propyl]isoxazole-3-carbohydroxamic Acid]	15	11	none of compounds 1, 2, or 4 induced apoptosis	effectively induced apoptosis	4.3	10							1.3
